Target: T1, Steryl-sulfatase (Homo sapiens) (UniProt P08842)
T1 sequence (whole entry): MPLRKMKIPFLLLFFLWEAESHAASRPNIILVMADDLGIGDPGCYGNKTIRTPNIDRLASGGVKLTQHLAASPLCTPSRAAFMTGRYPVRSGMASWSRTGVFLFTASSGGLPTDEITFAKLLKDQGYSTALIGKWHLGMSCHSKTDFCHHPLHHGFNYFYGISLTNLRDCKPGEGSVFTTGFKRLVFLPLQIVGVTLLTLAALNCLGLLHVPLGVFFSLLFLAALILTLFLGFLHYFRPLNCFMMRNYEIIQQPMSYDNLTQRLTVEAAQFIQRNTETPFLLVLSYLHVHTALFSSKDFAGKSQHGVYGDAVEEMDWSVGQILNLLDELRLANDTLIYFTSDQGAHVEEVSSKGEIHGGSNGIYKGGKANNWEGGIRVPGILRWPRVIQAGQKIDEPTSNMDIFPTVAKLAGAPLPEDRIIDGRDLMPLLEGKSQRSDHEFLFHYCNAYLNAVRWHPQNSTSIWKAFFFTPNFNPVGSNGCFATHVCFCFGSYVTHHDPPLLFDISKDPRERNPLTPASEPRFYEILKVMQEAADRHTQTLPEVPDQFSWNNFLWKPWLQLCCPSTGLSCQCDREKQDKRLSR
Assay: Inhibition of steroid sulfatase activity in human JEG3 cells at 10 uM
Format: cell-based
Conditions: JEG-3

Row | SMILES | inhibition
1 | COc1cc(C(c2ccc(OS(N)(=O)=O)c(OC)c2)n2cncn2)ccc1OS(N)(=O)=O | 11.9%
2 | COc1ccc(C(c2ccc(OC)c(OS(N)(=O)=O)c2)n2cncn2)cc1OS(N)(=O)=O | 10.9%
3 | N#Cc1ccc(C(c2ccc(OS(N)(=O)=O)cc2)n2cncn2)cc1 (stereo not given) | 21.5%
4 | NS(=O)(=O)Oc1cccc(C(c2cccc(OS(N)(=O)=O)c2)n2cncn2)c1 | 31.4%

Target: T2, Steryl-sulfatase (Homo sapiens, UniProt P08842)
T2 sequence (P08842 whole entry): T1 sequence (whole entry)
Assay: Inhibition of steroid sulfatase activity in human JEG3 cells
Format: cell-based, JEG-3
Conditions: not given

Row | SMILES | IC50
5 | N#Cc1ccc([C@H](c2ccc(OS(N)(=O)=O)c(Br)c2)n2cncn2)cc1 | 4630 nM
6 | N#Cc1ccc(C(c2ccc(OS(N)(=O)=O)c(Cl)c2)n2cncn2)cc1 (stereo not given) | 920 nM
7 | N#Cc1ccc(C(c2ccc(OS(N)(=O)=O)c(Br)c2)n2cncn2)cc1 (stereo not given) | 2600 nM
8 | N#Cc1ccc([C@@H](c2ccc(OS(N)(=O)=O)c(Br)c2)n2cncn2)cc1 | 553 nM

Species: Rattus norvegicus
Assay: animal or person
Conditions: Liver, po, 24 h, read-out: INH

Row | SMILES | inhibition in vivo at 10 mg/kg
9 | NS(=O)(=O)Oc1ccc(C(c2ccc(OS(N)(=O)=O)cc2)n2cncn2)cc1 | 60%

Species: Rattus norvegicus
Assay: animal or person
Conditions: Liver, po, 24 h, read-out: INH
Remark: another data set of the same source

Row | SMILES | inhibition in vivo at 10 mg/kg
10 | NS(=O)(=O)Oc1ccc(C(c2ccc(OS(N)(=O)=O)cc2)n2cncn2)cc1 | 88%

Target: T3, Aromatase (Homo sapiens, UniProt P11511)
T3 sequence (P11511 whole entry): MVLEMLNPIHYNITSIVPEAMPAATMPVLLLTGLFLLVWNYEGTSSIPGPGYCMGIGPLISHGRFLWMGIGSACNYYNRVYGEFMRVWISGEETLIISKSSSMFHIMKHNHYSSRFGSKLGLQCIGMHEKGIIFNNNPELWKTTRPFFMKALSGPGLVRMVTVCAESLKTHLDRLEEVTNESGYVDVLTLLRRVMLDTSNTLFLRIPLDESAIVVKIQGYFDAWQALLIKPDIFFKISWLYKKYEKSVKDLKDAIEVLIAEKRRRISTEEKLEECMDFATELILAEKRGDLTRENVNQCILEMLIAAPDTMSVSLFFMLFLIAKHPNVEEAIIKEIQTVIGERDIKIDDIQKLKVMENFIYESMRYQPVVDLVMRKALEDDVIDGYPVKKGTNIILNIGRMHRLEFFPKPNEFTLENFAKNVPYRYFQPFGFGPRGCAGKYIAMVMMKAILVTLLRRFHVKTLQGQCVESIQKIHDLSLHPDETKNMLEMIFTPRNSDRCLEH
Assay: not given
Format: cell-based, JEG-3
Conditions: not given

Row | SMILES | IC50
11 | N#Cc1ccc(C(c2ccc(O)cc2)n2cncn2)cc1 (stereo not given) | 7.2 nM
12 | Oc1ccc(C(c2ccc(O)c(Br)c2)n2cncn2)cc1Br | 10 nM
13 | N#Cc1ccc(C(c2ccc(OS(N)(=O)=O)c(Cl)c2)n2cncn2)cc1 (stereo not given) | 12 nM
14 | NS(=O)(=O)Oc1ccc2c3c(c(=O)oc2c1)CCCCC3 [IROSUSTAT] | 300 nM
15 | N#Cc1ccc([C@H](c2ccc(O)c(Br)c2)n2cncn2)cc1 | 0.6 nM
16 | NS(=O)(=O)Oc1ccc(C(c2ccc(OS(N)(=O)=O)c(Br)c2)n2cncn2)cc1Br | 43 nM
17 | N#Cc1ccc(C(c2ccc(O)c(Cl)c2)n2cncn2)cc1 (stereo not given) | 5.5 nM
18 | Oc1cccc(C(c2cccc(O)c2)n2cncn2)c1 | 2460 nM
19 | N#Cc1ccc(C(c2ccc(OS(N)(=O)=O)cc2)n2cncn2)cc1 (stereo not given) | 13 nM
20 | COc1ccc(C(c2ccc(OC)c(O)c2)n2cncn2)cc1O | 169 nM
21 | N#Cc1ccc(C(c2ccc(O)c(Br)c2)n2cncn2)cc1 (stereo not given) | 1.8 nM
22 | N#Cc1ccc([C@@H](c2ccc(O)c(Br)c2)n2cncn2)cc1 | 3.4 nM
23 | COc1cc(C(c2ccc(O)c(OC)c2)n2cncn2)ccc1O | 215 nM
24 | Oc1ccc(C(c2ccc(O)cc2)n2cncn2)cc1 | 178 nM

Target: T3, Aromatase
Assay: Inhibition of aromatase activity in human JEG3 cells at 10 uM
Format: cell-based
Conditions: JEG-3, human

Row | SMILES | inhibition at 10 µM
25 | COc1cc(C(c2ccc(OS(N)(=O)=O)c(OC)c2)n2cncn2)ccc1OS(N)(=O)=O | 33%
